Consider one molecule from patent US20110015162A1, “15,16-Methylene-17-hydroxy-19-nor-21-carboxylic acid-steroid Y-lactone derivative, use thereof and medicinal products containing the derivative” (Bayer Schering Pharma Aktiengesellschaft, priority 2007, published 2011).

For assay [1], the target named is T1, mineralocorticoid receptor (Homo sapiens, UniProt P08235).
T1 sequence (P08235 1-984): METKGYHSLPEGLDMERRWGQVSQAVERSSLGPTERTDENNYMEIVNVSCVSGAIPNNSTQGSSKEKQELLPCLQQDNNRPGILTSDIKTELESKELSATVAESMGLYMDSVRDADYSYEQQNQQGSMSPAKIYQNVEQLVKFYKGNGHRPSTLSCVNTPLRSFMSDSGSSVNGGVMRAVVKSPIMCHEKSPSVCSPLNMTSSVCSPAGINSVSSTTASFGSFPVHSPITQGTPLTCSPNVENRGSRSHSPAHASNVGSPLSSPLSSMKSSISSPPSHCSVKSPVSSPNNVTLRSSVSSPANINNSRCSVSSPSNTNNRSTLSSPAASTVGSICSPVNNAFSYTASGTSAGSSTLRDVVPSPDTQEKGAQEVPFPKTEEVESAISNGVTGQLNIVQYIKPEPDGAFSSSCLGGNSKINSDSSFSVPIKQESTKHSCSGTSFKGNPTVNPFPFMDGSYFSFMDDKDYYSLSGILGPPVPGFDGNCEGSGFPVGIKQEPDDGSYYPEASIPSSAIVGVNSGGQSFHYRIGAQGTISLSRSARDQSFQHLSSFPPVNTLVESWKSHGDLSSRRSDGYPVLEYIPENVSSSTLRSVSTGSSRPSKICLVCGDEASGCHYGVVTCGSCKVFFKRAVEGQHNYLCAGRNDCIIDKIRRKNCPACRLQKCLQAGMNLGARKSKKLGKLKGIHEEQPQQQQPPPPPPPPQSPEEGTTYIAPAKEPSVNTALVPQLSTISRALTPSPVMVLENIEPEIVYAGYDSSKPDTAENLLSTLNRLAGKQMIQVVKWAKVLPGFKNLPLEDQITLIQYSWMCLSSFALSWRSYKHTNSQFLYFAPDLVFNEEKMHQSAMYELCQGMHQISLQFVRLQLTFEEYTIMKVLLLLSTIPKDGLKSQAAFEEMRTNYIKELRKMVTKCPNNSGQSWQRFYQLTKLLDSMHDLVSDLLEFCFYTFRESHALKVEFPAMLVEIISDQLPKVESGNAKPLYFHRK
In words: Mineralocorticoid receptor binding test. The arrangement: made in house; host or cells: Hi5 insect cells (cytosol). The settings on record: reference substance 3H-aldosterone, cytosol from MR-expressing insect cells (Hi5). The procedure: (§1) Using cytosol from progesterone receptor-expressing insect cells (Hi5), competitive binding to the progesterone receptor was determined from the ability to displace ^3H-progesterone as reference substance from the receptor.
2. Mineralocorticoid Receptor Binding Test:
The test was carried out as in 1, with the following modifications: cytosol from mineralocorticoid receptor-expressing insect cells (Hi5) was used, and the reference substance was ^3H-aldosterone.

The target in assay [2] is T2, progesterone receptor (Homo sapiens, UniProt P06401).
T2 construct: made in house; host or cells: Hi5 insect cells (cytosol)
T2 sequence (P06401 1-933): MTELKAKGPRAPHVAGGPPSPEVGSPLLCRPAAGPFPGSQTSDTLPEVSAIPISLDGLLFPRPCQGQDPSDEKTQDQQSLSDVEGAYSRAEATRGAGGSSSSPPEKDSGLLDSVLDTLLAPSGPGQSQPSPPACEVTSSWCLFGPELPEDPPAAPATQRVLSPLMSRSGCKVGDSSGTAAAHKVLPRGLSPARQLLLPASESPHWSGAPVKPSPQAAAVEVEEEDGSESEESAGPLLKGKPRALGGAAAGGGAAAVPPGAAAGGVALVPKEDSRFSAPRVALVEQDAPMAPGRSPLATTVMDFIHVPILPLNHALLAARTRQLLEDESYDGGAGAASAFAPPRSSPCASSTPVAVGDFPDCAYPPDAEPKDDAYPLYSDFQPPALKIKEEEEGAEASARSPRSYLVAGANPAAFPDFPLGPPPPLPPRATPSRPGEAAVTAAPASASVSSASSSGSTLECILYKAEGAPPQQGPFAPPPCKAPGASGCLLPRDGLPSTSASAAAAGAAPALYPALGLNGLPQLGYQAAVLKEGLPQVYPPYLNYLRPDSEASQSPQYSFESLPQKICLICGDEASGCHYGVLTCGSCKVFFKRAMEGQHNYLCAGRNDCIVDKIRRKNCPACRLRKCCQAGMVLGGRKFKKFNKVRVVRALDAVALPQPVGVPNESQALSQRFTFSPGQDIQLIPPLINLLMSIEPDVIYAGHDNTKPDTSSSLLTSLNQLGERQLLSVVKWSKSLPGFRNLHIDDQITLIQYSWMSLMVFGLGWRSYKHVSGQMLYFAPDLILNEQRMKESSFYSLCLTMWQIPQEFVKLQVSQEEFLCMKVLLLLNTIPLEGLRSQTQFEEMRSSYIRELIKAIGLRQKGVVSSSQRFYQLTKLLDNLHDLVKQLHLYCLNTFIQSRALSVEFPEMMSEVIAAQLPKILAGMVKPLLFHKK
In words: Progesterone receptor binding test. The settings on record: CF 1 = affinity of progesterone; CF >1 lower affinity, <1 higher affinity. The procedure:
1. Progesterone Receptor Binding Test:
as §1

The target in assay [3] is T1, mineralocorticoid receptor. Put plainly: Antimineralocorticoid action by transactivation test (MDCK reporter cells).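 For Emax: percent inhibition of the aldosterone-stimulated reporter signal.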 Type of assay: cell-based. The arrangement: expressed in transfected cells; host or cells: MDCK cells. The procedure:
The test compounds were added eight hours later, and the cells were incubated with the compounds for 16 hours. The tests were carried out in triplicate. At the end of incubation the medium containing the effector was removed and replaced with lysis buffer. After luciferase assay substrate (Promega, #E1501) had been added, the 96-well plates were then put in a microplate luminometer (Pherastar, BMG Labtech), and the luminescence was measured. The IC50 values were evaluated using software for calculating dose-effect relations.
5. Determination of Antimineralocorticoid Action by Means of Transactivation Tests:
The antimineralocorticoid activity of the test substances was determined as for the transactivation tests described above.
The following modifications were undertaken: In this case reporter cell lines were used (MDCK cells) that express the human mineralocorticoid receptor, and transiently contain a reporter construct that contains luciferase under the control of a steroid hormone-responsive promoter.

Assay [4] has as its target T3, fusion protein from the PR-ligand-binding domain and a Gal4-transactivation domain (Homo sapiens, UniProt P06401).
T3 construct: expressed in transfected cells; host or cells: CHO K1 cells, stably transfected
In words: Progestational action by transactivation test (CHO K1 reporter cells). Particulars: CHO-K1, 16 h, read-out: Progesterone receptor Agonism efficacy. Type of assay: cell-based. The procedure:
4. Determination of Progestational Action by Means of Transactivation Tests:
The culture medium used for culture of the cells used for the assay was DMEM (Dulbecco's Modified Eagle Medium: […] glucose; PAA, #E15-009) with 10% FCS (Biochrom, S0115, batch #615B), 4 mM L-glutamine, 1% penicillin/streptomycin, 1 mg/ml G418 and 0.5 μg/ml puromycin.
Reporter cell lines (CHO K1 cells stably transfected with a fusion protein from the PR-ligand-binding domain and a Gal4-transactivation domain and a reporter construct, which contained luciferase under the control of a Gal4-responsive promoter) were seeded at a density of 4×10^4 cells per well in white, opaque tissue culture plates each with 96 wells (PerkinElmer, #P12-106-017) and kept in culture medium with 3% DCC-FCS (serum treated with activated charcoal to remove interfering components contained in the serum). The test compounds were added eight hours later, and the cells were incubated with the compounds for 16 hours. The tests were carried out in triplicate. At the end of incubation the medium containing the effector was removed and replaced with lysis buffer. After luciferase assay substrate (Promega, #E1501) had been added, the 96-well plates were then put in a microplate luminometer (Pherastar, BMG Labtech), and the luminescence was measured. The IC50 values were evaluated using software for calculating dose-effect relations.

Molecules are shown by their SMILES.

T3 sequence (P04386 1-147 partner limits assumed, one chain of several): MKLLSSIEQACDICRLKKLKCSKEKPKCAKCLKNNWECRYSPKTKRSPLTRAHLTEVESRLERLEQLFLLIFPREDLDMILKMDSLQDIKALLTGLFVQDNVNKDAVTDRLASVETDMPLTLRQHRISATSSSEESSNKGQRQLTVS

`C[C@]12CCC(=O)C=C1[C@@H]1C[C@@H]1[C@H]1[C@@H]3[C@@H]4C[C@@H]4[C@@]4(CCC(=O)O4)[C@@]3(C)CC[C@@H]12` [A, 6β, 7β;15β,16β-dimethylene-3-oxo-17-pregn-4-ene-21,17β-carbolactone, reference compound]: the “Mineralocorticoid receptor (MR) Competition factor” value in assay [1] turned out to be 0.5. The “Progesterone receptor (PR) Competition factor” value in assay [2] came out at 2.7. In addition, in assay [3] (MDCK cells, with 1 nM aldosterone, read-out: Mineralocorticoid receptor Antagonism IC50), the IC50 (in general, the point on the concentration scale where inhibition reaches its midpoint) came to 3.3 nM. Further, the Emax in assay [3] (MDCK, read-out: Mineralocorticoid receptor Antagonism efficacy) turned out to be 64.1%; in assay [4], 72.2%.
